Test systems include UO-31 renal; HT29 colon; SR leukemia; MCF7 breast; OVCAR-8 ovarian; IGROV1 ovarian; U251 CNS; NCI-H226 lung; SK-MEL-2 melanoma; OVCAR-4 ovarian.
Holding throughout (experiment): NCI tumour cell line growth inhibition, 48 h

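Each compound was tested at five concentrations against cells in 96-well plates for 48 hours. The concentration for 50% growth inhibition is given as GI50. TGI: total growth inhibition.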

Experimental findings from PubChem BioAssay (NCI) are described below.

Regarding `CCN(CCNc1ccc(C)c2sc3cc(Cl)ccc3c(=O)c12)CC(C)(C)O`, the GI50 was 1.3 µM with UO-31 renal; 2 µM with HT29 colon; 9.48 µM in the experiment on SR leukemia; 11.7 µM in the experiment with MCF7 breast; 22.5 µM in the experiment with OVCAR-8 ovarian; 2.68 µM with IGROV1 ovarian. The GI50 in the experiment with U251 CNS was 4.51 µM; in the experiment on NCI-H226 lung, 14 µM; in the experiment on SK-MEL-2 melanoma it was 3.28 µM; in the experiment with OVCAR-4 ovarian, 24.6 µM. Further, the TGI was 3.53 µM in the experiment with UO-31 renal; 4.86 µM with HT29 colon; over 100 µM in the experiment with SR leukemia; 26.9 µM with MCF7 breast; over 100 µM with OVCAR-8 ovarian; 19.1 µM with IGROV1 ovarian. For the same molecule, the TGI in the experiment with U251 CNS was 18.5 µM; in the experiment with NCI-H226 lung, 30.7 µM; in the experiment with SK-MEL-2 melanoma it was 14.2 µM; in the experiment with OVCAR-4 ovarian it was over 100 µM.
On to `CC1=NN(c2nc(N)nc(/C=C\c3ccccc3)n2)C(C)(C)C1`, for which the GI50 with UO-31 renal is 13.5 µM; with HT29 colon, 2.47 µM; in the experiment with SR leukemia, 6.12 µM; with MCF7 breast, 8 µM; in the experiment on OVCAR-8 ovarian, 5.33 µM; with IGROV1 ovarian it was 8.99 µM. Moreover, the GI50 in the experiment with U251 CNS is 3.19 µM; in the experiment on NCI-H226 lung, 13.7 µM; in the experiment with SK-MEL-2 melanoma, 11.2 µM; in the experiment with OVCAR-4 ovarian, 4.16 µM. Also, the TGI worked out at 28.5 µM in the experiment on UO-31 renal; 14 µM with HT29 colon; 27.8 µM in the experiment on SR leukemia; 25.5 µM in the experiment with MCF7 breast; 39 µM with OVCAR-8 ovarian; 24 µM with IGROV1 ovarian. The TGI in the experiment with U251 CNS stood at 28.9 µM; in the experiment with NCI-H226 lung, 28.6 µM; in the experiment on SK-MEL-2 melanoma, 30.6 µM; in the experiment with OVCAR-4 ovarian, 16.6 µM.
For `CN1CC[C@]23c4c5ccc(O)c4OC2c2[nH]ncc2C[C@H]3[C@H]1C5` (stereo not given in full), the TGI with UO-31 renal, with HT29 colon, in the experiment with SR leukemia, in the experiment with MCF7 breast, in the experiment with OVCAR-8 ovarian and with IGROV1 ovarian was over 100 µM in each case. The TGI with U251 CNS, in the experiment with NCI-H226 lung, in the experiment on SK-MEL-2 melanoma and in the experiment with OVCAR-4 ovarian was over 100 µM throughout.
Turning to `CCN(CC)C(=O)CCCCCn1c2ccccc2c2c3c(c4c5ccccc5[nH]c4c21)C(=O)N(O)C3=O`, the GI50 is 1.72 µM with UO-31 renal; 2.22 µM in the experiment on HT29 colon; 1.56 µM with SR leukemia; 2.94 µM in the experiment with MCF7 breast; 4.1 µM in the experiment on OVCAR-8 ovarian; 2.41 µM in the experiment on IGROV1 ovarian. For the same molecule, the GI50 in the experiment on U251 CNS was 1.96 µM; in the experiment on NCI-H226 lung, 14.1 µM; with SK-MEL-2 melanoma, 3.38 µM; with OVCAR-4 ovarian, 5.06 µM. Also, the TGI with UO-31 renal is 4.22 µM; with HT29 colon, 4.44 µM; in the experiment with SR leukemia, 13.6 µM; in the experiment with MCF7 breast it was over 100 µM; in the experiment on OVCAR-8 ovarian, 28.3 µM; in the experiment on IGROV1 ovarian, 6.87 µM. For the same molecule, the TGI with U251 CNS is 3.78 µM; with NCI-H226 lung it was 54.4 µM; in the experiment with SK-MEL-2 melanoma, 12.1 µM; in the experiment on OVCAR-4 ovarian, over 100 µM.
Regarding `CCN(CC)CCS(=O)(=O)CCNc1ccnc2cc(Cl)ccc12`, the GI50 in the experiment on UO-31 renal is 0.682 µM; in the experiment with HT29 colon, 0.868 µM; with SR leukemia, 0.812 µM; with MCF7 breast, 1.86 µM; with OVCAR-8 ovarian, 2.54 µM; with IGROV1 ovarian, 2.26 µM. Also, the GI50 was 3.17 µM in the experiment on U251 CNS, 4.61 µM in the experiment with NCI-H226 lung, 2.35 µM with SK-MEL-2 melanoma and 2.07 µM in the experiment with OVCAR-4 ovarian. Moreover, the TGI in the experiment on UO-31 renal is 8.8 µM; with HT29 colon, 2.29 µM; with SR leukemia it was over 46.3 µM; in the experiment on MCF7 breast, over 33.8 µM; with OVCAR-8 ovarian, over 27.3 µM; with IGROV1 ovarian it was 16.7 µM. The TGI in the experiment on U251 CNS is 13.9 µM; in the experiment with NCI-H226 lung, over 100 µM; with SK-MEL-2 melanoma, 14.1 µM; in the experiment with OVCAR-4 ovarian, over 62.2 µM.
Consider `CCOC(=O)n1c2ccccc2c(=O)n1CCO`, for which the TGI with UO-31 renal, in the experiment on HT29 colon, in the experiment on SR leukemia, with MCF7 breast, in the experiment on OVCAR-8 ovarian and in the experiment with IGROV1 ovarian was over 100 µM each time. Further, the TGI with U251 CNS, with NCI-H226 lung, with SK-MEL-2 melanoma and in the experiment with OVCAR-4 ovarian was over 100 µM in each case.
Regarding `CC1(C)N=C(N)N=C(N)N1c1ccc(OCCCCNC(=O)Nc2cccc(S(=O)(=O)F)c2)c(Cl)c1`, the GI50 in the experiment with UO-31 renal is 40.5 µM; with HT29 colon, 0.611 µM; in the experiment on SR leukemia, 1.02 µM; in the experiment with MCF7 breast, 2.09 µM; with OVCAR-8 ovarian, 4.28 µM; with IGROV1 ovarian, 0.581 µM. Further, the GI50 in the experiment on U251 CNS was 0.674 µM; with NCI-H226 lung, 7.95 µM; with SK-MEL-2 melanoma, 13.6 µM; with OVCAR-4 ovarian, 13.3 µM. Further, the TGI with UO-31 renal, in the experiment with HT29 colon, in the experiment on SR leukemia, in the experiment on MCF7 breast, with OVCAR-8 ovarian and in the experiment with IGROV1 ovarian was over 100 µM each time. Moreover, the TGI with U251 CNS, in the experiment with NCI-H226 lung, with SK-MEL-2 melanoma and in the experiment with OVCAR-4 ovarian was over 100 µM in each case.
With `O=C(/C=C/c1cccc(Oc2ccc(Cl)cc2)c1)c1ccccc1`, the GI50 in the experiment with UO-31 renal was 17.3 µM; in the experiment with HT29 colon it was 26.2 µM; in the experiment with SR leukemia, 22.9 µM; in the experiment with MCF7 breast it was 26.9 µM; in the experiment on OVCAR-8 ovarian it was 26.9 µM; in the experiment on IGROV1 ovarian, 28.1 µM. For the same molecule, the GI50 with U251 CNS was 21.1 µM; in the experiment with NCI-H226 lung it was 122 µM; in the experiment with SK-MEL-2 melanoma, 148 µM; in the experiment on OVCAR-4 ovarian, 75 µM. In addition, the TGI was 34.1 µM with UO-31 renal; 61.6 µM in the experiment on HT29 colon; 78.7 µM in the experiment with SR leukemia; 118 µM in the experiment on MCF7 breast; 66.9 µM with OVCAR-8 ovarian; 101 µM in the experiment on IGROV1 ovarian. Also, the TGI in the experiment with U251 CNS turned out to be 42 µM; in the experiment with NCI-H226 lung it was 273 µM; in the experiment with SK-MEL-2 melanoma, 336 µM; with OVCAR-4 ovarian, 234 µM.
Regarding `Cc1cc(-c2ccco2)cc(C)c1/C=C/c1cncc(-c2nn[nH]n2)c1`, the GI50 with UO-31 renal, in the experiment on HT29 colon, with SR leukemia, in the experiment with MCF7 breast, in the experiment with OVCAR-8 ovarian and in the experiment with IGROV1 ovarian was over 25 µM throughout. Besides, the GI50 in the experiment with U251 CNS, in the experiment with NCI-H226 lung, in the experiment on SK-MEL-2 melanoma and in the experiment with OVCAR-4 ovarian was over 25 µM throughout. The TGI in the experiment on UO-31 renal, in the experiment on HT29 colon, in the experiment with SR leukemia, with MCF7 breast, in the experiment with OVCAR-8 ovarian and with IGROV1 ovarian was over 25 µM throughout. Moreover, the TGI in the experiment on U251 CNS, in the experiment with NCI-H226 lung, in the experiment with SK-MEL-2 melanoma and in the experiment on OVCAR-4 ovarian was over 25 µM throughout.
Regarding `COC(=O)c1ccc2c(c1)C(=O)c1c-2n(CCCCl)c(=O)c2cc(OC)c(OC)cc12`, the GI50 with UO-31 renal is over 100 µM; in the experiment on HT29 colon, over 100 µM; in the experiment on SR leukemia, 0.061 µM; in the experiment with MCF7 breast, over 100 µM; with OVCAR-8 ovarian it was over 100 µM; in the experiment with IGROV1 ovarian, over 100 µM. In addition, the GI50 in the experiment on U251 CNS, with NCI-H226 lung, with SK-MEL-2 melanoma and in the experiment with OVCAR-4 ovarian was over 100 µM each time. For the same molecule, the TGI in the experiment on UO-31 renal, in the experiment on HT29 colon, with SR leukemia, in the experiment on MCF7 breast, in the experiment with OVCAR-8 ovarian and in the experiment on IGROV1 ovarian was over 100 µM each time. Also, the TGI with U251 CNS, in the experiment with NCI-H226 lung, in the experiment with SK-MEL-2 melanoma and in the experiment with OVCAR-4 ovarian was over 100 µM in each case.
Regarding `O=C1C2C(C(=O)N1CC[Se][Se]CCN1C(=O)C3C(C1=O)[C@H]1C=C[C@@H]3C1)[C@H]1C=C[C@@H]2C1` (stereo not given in full), the GI50 with UO-31 renal is 0.247 µM; in the experiment with HT29 colon it was 0.355 µM; in the experiment on SR leukemia, 1.1 µM; with MCF7 breast, 0.332 µM; with OVCAR-8 ovarian, 0.404 µM; with IGROV1 ovarian it was 0.22 µM. Moreover, the GI50 is 0.597 µM in the experiment on U251 CNS, 0.219 µM with NCI-H226 lung, 1.98 µM in the experiment on SK-MEL-2 melanoma and 1.04 µM with OVCAR-4 ovarian. Moreover, the TGI in the experiment on UO-31 renal was 0.964 µM; in the experiment with HT29 colon it was 12.7 µM; with SR leukemia, over 26.6 µM; with MCF7 breast, 4.01 µM; in the experiment on OVCAR-8 ovarian it was 2.28 µM; in the experiment with IGROV1 ovarian, 0.556 µM. The TGI in the experiment on U251 CNS amounted to 3.04 µM; in the experiment on NCI-H226 lung, 0.495 µM; with SK-MEL-2 melanoma, 5.78 µM; with OVCAR-4 ovarian, 4.52 µM.
Regarding `Cc1cc2c(cc1C)[n+](=O)c(C(=O)/C=C/c1ccccc1[N+](=O)[O-])c(C)n2[O-]`, the TGI is over 100 µM in the experiment with UO-31 renal; over 100 µM in the experiment with HT29 colon; over 95.7 µM in the experiment on SR leukemia; over 46.4 µM with MCF7 breast; over 100 µM in the experiment on OVCAR-8 ovarian; over 100 µM with IGROV1 ovarian. For the same molecule, the TGI in the experiment on U251 CNS is 64.8 µM; with NCI-H226 lung, over 100 µM; with SK-MEL-2 melanoma, 55.2 µM; with OVCAR-4 ovarian, over 100 µM.
